Measurements reported in publication PMC8249783, “A novel multikinase inhibitor SKLB‐YTH‐60 ameliorates inflammation and fibrosis in bleomycin‐induced lung fibrosis mouse models” (Cell Proliferation, 2021).
Values joined by “and” are separate entries in the source; they are usually repeats but may differ in a detail not shown here. Equal entries are not always repeated. Where two headings read alike, the source gives them in different places.

Experiment: Pharmacokinetics study after IV and PO administration to SD rats
Format: in vivo
Conditions: for concentration at 2 h / concentration at 4 h / concentration at 6 h / concentration at 8 h / AUC / MRT: SD, rat, plasma
Protocol: The appropriate amount of YTH‐60 was accurately weighed, added to the final volume of 5% DMSO, 40% PEG400 and 55% normal saline, and vortexed or ultrasonicated to fully mix. Then, 0.4 and 2 mg·mL^−1 of clarified dosing solution was used for intravenous administration and oral gavage administration. SD rats were transferred from the Experimental Animal Library (999 M‐017), Shanghai Xipuer‐Beikai Experimental Animal Co. Ltd. After oral, intravenous or intragastric administration, blood was collected by jugular vein or other suitable methods. Approximately 0.20 mL of each sample was collected, in the presence of heparin sodium as an anticoagulant. After the blood samples were collected, they were placed on ice and centrifuged to separate plasma within 2 hours (centrifugation conditions: centrifugal force 6800 g, 6 minutes, 2‐8°C). The collected plasma samples were stored at −80°C before analysis by LC‐MS/MS‐18. After analysis, the remaining plasma samples were stored at −80°C for a period of 1 month.

Individual plasma concentration (IV 2 mg/kg, 0.083 h, individual animals 101, 102, 103, 2 mg/kg): 423.84 ng/mL and 362.43 ng/mL
Individual plasma concentration (IV 2 mg/kg, 0.25 h, individual animals 101, 102, 103, 2 mg/kg): 168.72 ng/mL and 204.54 ng/mL
Individual plasma concentration (IV 2 mg/kg, 0.5 h, individual animals 101, 102, 103, 2 mg/kg): 128.91 ng/mL and 163.29 ng/mL
Individual plasma concentration (IV 2 mg/kg, 1 h, individual animals 101, 102, 103, 2 mg/kg): 107.71 ng/mL and 131.39 ng/mL
Individual plasma concentration (IV 2 mg/kg, 2 h, individual animals 101, 102, 103, 2 mg/kg): 69.27 ng/mL and 80.59 ng/mL
Individual plasma concentration (IV 2 mg/kg, 4 h, individual animals 101, 102, 103, 2 mg/kg): 42.78 ng/mL and 48.71 ng/mL
Individual plasma concentration (IV 2 mg/kg, 6 h, individual animals 101, 102, 103, 2 mg/kg): 34.45 ng/mL and 41.43 ng/mL
Individual plasma concentration (IV 2 mg/kg, 8 h, individual animals 101, 102, 103, 2 mg/kg): 22.38 ng/mL and 32.19 ng/mL
Individual plasma concentration (IV 2 mg/kg, 24 h, individual animals 101, 102, 103, 2 mg/kg): 2.68 ng/mL and 3.51 ng/mL
Individual plasma concentration (PO 20 mg/kg, 0.25 h, individual animals 201, 202, 203, 20 mg/kg): 38.10 ng/mL and 22.94 ng/mL
Individual plasma concentration (PO 20 mg/kg, 0.5 h, individual animals 201, 202, 203, 20 mg/kg): 25.31 ng/mL and 35.39 ng/mL
Individual plasma concentration (PO 20 mg/kg, 1 h, individual animals 201, 202, 203, 20 mg/kg): 34.05 ng/mL and 26.26 ng/mL
Individual plasma concentration (PO 20 mg/kg, 4 h, individual animals 201, 202, 203, 20 mg/kg): 83.13 ng/mL and 87.88 ng/mL
Individual plasma concentration (PO 20 mg/kg, 6 h, individual animals 201, 202, 203, 20 mg/kg): 85.16 ng/mL and 114.92 ng/mL
Individual plasma concentration (PO 20 mg/kg, 8 h, individual animals 201, 202, 203, 20 mg/kg): 79.77 ng/mL and 97.21 ng/mL
Individual plasma concentration (PO 20 mg/kg, 24 h, individual animals 201, 202, 203, 20 mg/kg): 14.36 ng/mL and 18.49 ng/mL
concentration at 2 h (iv, 2 mg/kg, IV 2 mg/kg, 2 h, individual animals 101, 102, 103, read-out: Individual plasma concentration): 68.3 ng/mL
concentration at 2 h (iv, 2 mg/kg, IV 2 mg/kg, 2 h, read-out: Mean plasma concentration): 72.7 ng/mL
concentration at 4 h (iv, 2 mg/kg, IV 2 mg/kg, 4 h, individual animals 101, 102, 103, read-out: Individual plasma concentration): 41.1 ng/mL
concentration at 4 h (iv, 2 mg/kg, IV 2 mg/kg, 4 h, read-out: Mean plasma concentration): 44.2 ng/mL
concentration at 6 h (iv, 2 mg/kg, IV 2 mg/kg, 6 h, individual animals 101, 102, 103, read-out: Individual plasma concentration): 36.8 ng/mL
concentration at 6 h (iv, 2 mg/kg, IV 2 mg/kg, 6 h, read-out: Mean plasma concentration): 37.6 ng/mL
concentration at 8 h (iv, 2 mg/kg, IV 2 mg/kg, 8 h, individual animals 101, 102, 103, read-out: Individual plasma concentration): 20.4 ng/mL
AUC (iv, 2 mg/kg, SD rats, i.v. 2 mg·kg^−1, read-out: AUC0‐t): 773 ± 99.4 ng·h/mL
AUC (iv, 2 mg/kg, SD rats, i.v. 2 mg·kg^−1, read-out: AUC0‐∞): 793 ± 104 ng·h/mL
MRT (iv, 2 mg/kg, SD rats, i.v. 2 mg·kg^−1, read-out: MRT0‐t): 4.5 ± 0.28 h
MRT (iv, 2 mg/kg, SD rats, i.v. 2 mg·kg^−1, read-out: MRT0‐∞): 5.16 ± 0.36 h
AUC (iv, 2 mg·kg^−1, SD rats, after an IV dose, read-out: mean AUC(0‐t)): 773 ng·h/mL
concentration at 2 h (po, 20 mg/kg, PO 20 mg/kg, 2 h, read-out: Mean plasma concentration): 60 ng/mL
concentration at 4 h (po, 20 mg/kg, PO 20 mg/kg, 4 h, individual animals 201, 202, 203, read-out: Individual plasma concentration): 84.7 ng/mL
concentration at 4 h (po, 20 mg/kg, PO 20 mg/kg, 4 h, read-out: Mean plasma concentration): 85.2 ng/mL
concentration at 6 h (po, 20 mg/kg, PO 20 mg/kg, 6 h, individual animals 201, 202, 203, read-out: Individual plasma concentration): 82.5 ng/mL
concentration at 6 h (po, 20 mg/kg, PO 20 mg/kg, 6 h, read-out: Mean plasma concentration): 94.2 ng/mL
concentration at 8 h (po, 20 mg/kg, PO 20 mg/kg, 8 h, individual animals 201, 202, 203, read-out: Individual plasma concentration): 67.4 ng/mL
concentration at 8 h (po, 20 mg/kg, PO 20 mg/kg, 8 h, read-out: Mean plasma concentration): 81.5 ng/mL
Structure (SMILES): COc1cc(OC)c(Cl)c(-c2ccc3c(/C=C/c4ccc(N(C)C(=O)CN5CCN(C)CC5)cc4)n[nH]c3c2)c1Cl [YTH‐60, (E)‐N‐(4‐(2‐(6‐(2,6‐dichloro‐3,5‐dimethoxyphenyl)‐1H‐indazol‐3‐yl)vinyl)phenyl)‐N‐methyl‐2‐(4‐methylpiperazin‐1‐yl)acetamide]
Individual plasma concentration (PO 20 mg/kg, 2 h, individual animals 201, 202, 203, 20 mg/kg): 87.47 ng/mL and 35.35 ng/mL and 57.08 ng/mL
